One assay deals with exosomal miR-195-5p. The experiment in a line: brain and serum exosomal miR-195-5p levels in mice treated with synj1-lowering agents. The assay is classed as in vivo, mouse. Conditions: for serum exosomal miR-195 levels: treated 5×FAD mice versus vehicle controls, N=6-8/group; for brain exosomal miR-195-5p levels: treated mice versus controls. The protocol:
As disclosed herein, a study was performed to examine exosomal fractions of brain and serum samples of synj1 haploinsufficiency mice (ApoE3 synj1^+/− and ApoE4 synj1^+/−) as well as of mice treated with synj1-lowering agents (SynaptoCpd #9 and Cpd #6). Exosomes were purified using sucrose gradient fractionation methods and the purity of exosome fractions were evaluated by western blot analysis of exosomal protein markers such as ALIX, and uptake studies of fluorescence tagged exosomes by human iPSC-derived astrocyte cultures. […] In addition, serum exosomal miR-195-5p levels were positively correlated with brain exosomal miR-195-5p levels and cognitive performance (NOR preference index and Y maze SAP scores), and reversely correlated with brain insoluble pTau and synj1 protein levels in drug-treated mouse cohorts (FIG. 19C).

A further assay has as its system ApoE receptors. The experiment in a line: miR-195 levels in ApoE-/- neurons treated with ApoE3-CM or ApoE4-CM in the presence of RAP. The assay is classed as cell-based, mouse. Particulars: N=3/group. The protocol:
Mouse Neuronal and human iPSC culture. Primary cortical neurons were cultured (Zhu L et al., Proc Natl Acad Sci USA 2015, and Zhu L et al., J Biol Chem 2013) before being fixed and stained for confocal microscopy analysis (Zeiss LSM) (Berg I et al., Nat Protoc 2010). In some conditions, bovine serum albumin (BSA) or receptor-associated protein (RAP) was included in the cultured media (N=3/group). Alternatively, cultured neurons were transfected with adeno-associated virus 2 (AAV2)-containing miR-195-5p or miR-374 or scramble controls for 5 days before subjected to analysis. […]
Statistical analysis. […] Levels of miR-195-5p and miR-374 were normalized to U6 and RNU6B (internal controls) while synj1 mRNA normalized to GAPDH and 18s, and then expressed as Log2fold of changes when compared to controls. Levels of synj1, dyn1, pTau, Tau, and holoAPP were normalized to β-actin levels and expressed as a percentage of the control. Absolute Aβ42, Aβ40, pTau, Tau, and ApoE concentrations were quantitatively determined by ELISA and expressed as a percentage of the control. […] Pearson correlation coefficients were calculated to determine the linear relationship between the two variables. […]

Entries after “also recorded” stand apart in the source; their conditions may differ.

As for `COCCOC(=O)C1=C(C)NC(C)=C(C(=O)OC(C)C)C1c1ccc(C(F)(F)F)cc1` (stereo not drawn) [Cpd #6], in the assay on exosomal miR-195-5p, the “serum exosomal miR-195 levels” value is “much higher; also recorded: significantly elevated” and the “brain exosomal miR-195-5p levels” value is on record as “much higher”.

As to `COCCOC(=O)C1=C(C)NC(C)=C(C(=O)OC(C)C)C1c1ccc(C(C)(C)C)cc1` (stereo not drawn) [Cpd #9], in the assay with exosomal miR-195-5p, the “serum exosomal miR-195 levels” value is “much higher; also recorded: significantly elevated” and the “brain exosomal miR-195-5p levels” value is “much higher”.

For “RAP: ApoE-receptor associated protein, an inhibitor of ApoE receptors”, the results for the miR-195 levels in the assay on ApoE receptors (ApoE4 CM+RAP (ApoE4 CM+BSA −3.193±0.144)) and in the assay on ApoE receptors (RAP in the presence of ApoE3-CM) were −2.678±0.054 log2FC and −1.648±0.125 log2FC, respectively.

For the origin of these results see patent publication US20240301408A1, “MICRORNA 195 COMPOSITIONS AND METHODS FOR TREATING COGNITIVE IMPAIRMENT” (UNITED STATES GOVERNMENT AS REPRESENTED BY THE DEPARTMENT …, priority 2021, published 2024).
